Earlier results on one compound are cited in article PMC3583338 (Clinical pharmacology and therapeutics, 2008).

Each structure is given as a SMILES string.

With `CC(C)c1nc(CN(C)C(=O)N[C@H](C(=O)N[C@@H](Cc2ccccc2)C[C@H](O)[C@H](Cc2ccccc2)NC(=O)OCc2cncs2)C(C)C)cs1` [ritonavir], in the data set on OATP, the “inhibition of OATP-mediated fexofenadine transport” value is reported as 13%. For the same compound, the “P-gp mRNA expression” value in the data set on P-gp is recorded as “moderately induced”. The “effect on OATP1B1” value in the data set with OATP1B1 was “little or no effect”. In the data set with OATP1B3, the “effect on OATP1B3” value is reported as “little or no effect”.
